{
  "source": "paper PMC7119080",
  "about": "(Bioorganic & Medicinal Chemistry Letters, 2005)",
  "key": {"Chymotrypsin": {"molecular_target": "Chymotrypsin (Bos taurus, UniProt P00766)", "assay": "biochemical"}, "Papain": {"molecular_target": "Papain (Carica papaya, UniProt P00784)", "sequence (P00784 134-345 limits assumed)": "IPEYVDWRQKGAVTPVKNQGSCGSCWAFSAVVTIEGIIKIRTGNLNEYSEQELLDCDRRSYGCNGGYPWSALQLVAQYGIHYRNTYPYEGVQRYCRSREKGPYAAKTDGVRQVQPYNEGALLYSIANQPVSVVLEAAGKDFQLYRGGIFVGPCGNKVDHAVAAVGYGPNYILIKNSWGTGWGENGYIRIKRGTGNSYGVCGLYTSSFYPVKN", "format": "biochemical"}},
  "data": [
    {"compound": "O=C1C(=O)N(Cc2cc3ccccc3s2)c2c(Br)cccc21", "note": "[Compound 4k]", "values": [
      {"measurement": "IC50", "setting": "Chymotrypsin", "result": 10.4, "unit": "µM"},
      {"measurement": "more potent inhibition for SARS CoV 3CL^pro than for papain", "setting": "Papain", "result": "90–105 times"}
    ]},
    {"compound": "O=C1C(=O)N(Cc2cc3ccccc3s2)c2ccc(I)cc21", "note": "[Compound 4o]", "values": [
      {"measurement": "more potent inhibition for SARS CoV 3CL^pro than for papain", "setting": "Papain", "result": "90–105 times"}
    ]}
  ]
}
